Reference: patent publication US6630331B1, “Herbicides test method” (Hoechst Schering AgrEvo GmbH, priority 1997, dated 2003)
Values belong to the molecule of their own block, whether it stands above or below them.

What was measured:
[1] = molecular target: T1, recombinant L. japonicus pantothenate synthetase (Lotus japonicus, UniProt O24035); test: Substrate specificity of recombinant L. japonicus pantothenate synthetase; format: biochemical; settings: for yield (%): relative to standard assay; for inhibition: analogue at 10-fold excess over pantoate
T1 construct: the processed recombinant protein (3-proline through 308-leucine) has a theoretical mass of 34,037.7 Da; made in house; host or cells: E. coli AT1371 (panC) transformed with pSKL
T1 sequence (O24035 3-308): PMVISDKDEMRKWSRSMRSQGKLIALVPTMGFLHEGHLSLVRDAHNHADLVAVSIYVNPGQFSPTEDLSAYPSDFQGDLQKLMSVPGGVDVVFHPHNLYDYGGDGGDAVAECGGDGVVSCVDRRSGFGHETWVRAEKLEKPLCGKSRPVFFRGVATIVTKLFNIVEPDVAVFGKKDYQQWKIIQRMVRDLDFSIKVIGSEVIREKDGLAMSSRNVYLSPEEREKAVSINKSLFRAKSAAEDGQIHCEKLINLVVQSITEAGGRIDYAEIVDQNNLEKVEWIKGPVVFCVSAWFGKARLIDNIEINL
Procedure: (§1) 2. The preferred assay mixture to measure the pyrophosphate liberated in the PS reaction after its conversion with inorganic pyrophosphatase to inorganic phosphate comprises 100 μmol Tris.HCl (pH 8.0), 10 μmol MgSO4, 5 μmol ATP, 10 μmol […], 0.5 μmol pantoate, 1.0 unit yeast inorganic pyrophosphatase and pantothenate synthetase in a total volume of 100 μl. After a suitable incubation period the PS reaction is terminated either
a) by the addition of 100 μlof a reagent mixture comprising 62.3 µg malachite green hydrochloride, 1.9 mg ammoniumheptamolybdate and 0.5% (v/v) of a suitable detergent (for example Triton X-100, Tween-80 or Tergitol NPX) in 1.88 N hydrochloric acid. The resulting colour complex is stabilised by the addition after 1 minute of 50 μl of a 26% (w/v) solution of trisodium citrate dihydrate in water and after an additional 45 minutes incubation at room temperature the intensity of the colour complex is determined by measuring the extinction at 620 nm. The amount of inorganic phosphate liberated in the PS reaction is determined by reference to a standard curve generated from suitable amounts of inorganic phosphate by using the difference of extinction at 620 nm between a complete PS assay mixture and a PS assay mixture lacking pantoate. Since there are 2 molecules of inorganic phosphate liberated for every molecule of pyrophosphate formed in the PS reaction, one unit of PS activity is defined as the amount of enzyme producing 2 nmoles of inorganic phosphate per minute, and specific activity is expressed as units per milligram of protein; or […]

[2] = molecular target: T2, recombinant Lotus pantothenate synthetase (Lotus japonicus, UniProt O24035); test: Activity of recombinant Lotus pantothenate synthetase in the presence of potential effectors; format: biochemical; parameters: the processed recombinant protein (3-proline through 308-leucine) has a theoretical mass of 34,037.7 Da; made in house; host or cells: E. coli AT1371 (panC) transformed with pSKL; settings: for Final activity [%]: effector 1 mM, pantoate 0.1 mM, β-alanine 1.0 mM, % of activity without effector
Procedure: as §1, with “[…],” for “0.5 μmol pantoate,”, “yeast inorganic pyrophosphatase and pantothenate synthetase in a total volume of 100 μl.” left out
(§2) a) by the addition of 100 μlof a reagent mixture comprising 62.3 µg malachite green hydrochloride, 1.9 mg ammoniumheptamolybdate and 0.5% (v/v) of a suitable detergent (for example Triton X-100, Tween-80 or Tergitol NPX) in 1.88 N hydrochloric acid. The resulting colour complex is stabilised by the addition after 1 minute of 50 μl of a 26% (w/v) solution of trisodium citrate dihydrate in water and after an additional 45 minutes incubation at room temperature the intensity of the colour complex is determined by measuring the extinction at 620 nm. The amount of inorganic phosphate liberated in the PS reaction is determined by reference to a standard curve generated from suitable amounts of inorganic phosphate by using the difference of extinction at 620 nm between a complete PS assay mixture and a PS assay mixture lacking pantoate. Since there are 2 molecules of inorganic phosphate liberated for every molecule of pyrophosphate formed in the PS reaction, one unit of PS activity is defined as the amount of enzyme producing 2 nmoles of inorganic phosphate per minute, and specific activity is expressed as units per milligram of protein; or
Among these compounds are the intermediates of pantothenate biosynthesis as well as coenzyme A. As coenzyme A plays a prominent role in fatty acid synthesis and degradation, various acyl forms of coenzyme A and free fatty acids were also included. […] Table 7 lists the compounds tried and their effect on PS activity which is expressed percentage of activity in an assay without additions.

purified E. coli PS = purified E. coli PS (Escherichia coli, UniProt P31663); settings: cited from earlier work
Sequence of purified E. coli PS (P31663 whole entry): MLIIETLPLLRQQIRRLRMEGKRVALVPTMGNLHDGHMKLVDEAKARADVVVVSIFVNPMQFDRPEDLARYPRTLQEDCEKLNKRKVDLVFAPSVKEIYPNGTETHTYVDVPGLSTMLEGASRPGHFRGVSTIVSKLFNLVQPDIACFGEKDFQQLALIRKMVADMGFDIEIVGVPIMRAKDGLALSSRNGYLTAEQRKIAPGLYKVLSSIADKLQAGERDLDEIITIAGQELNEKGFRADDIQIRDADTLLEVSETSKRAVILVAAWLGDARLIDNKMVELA

[3] = molecular target: T2, recombinant Lotus pantothenate synthetase; test: Steady state kinetics of recombinant Lotus pantothenate synthetase
Procedure: as §1, §2
Km and Vmax constants for pantoate and […] were determined by measuring the effect of substrate concentration on the reaction rate.

[4] = substrate: NCCC(=O)O; test: purified protein, by the assay type; settings: pantoate at 0.5 mM const., pH 8.0
[5] = substrate: CC(C)(CO)[C@@H](O)C(=O)O; test: purified protein, by the assay type; settings: pH 8.0
Procedure: Km and Vmax constants for pantoate and ⊖-alanine were determined by measuring the effect of substrate concentration on the reaction rate.

[6] = analogue 1.0 mM added to pantoate 0.1 mM and β-alanine 1 mM
[7] = analogue 1.0 mM in place of pantoate, β-alanine 1 mM
[8] = analogue 10 mM in place of pantoate, β-alanine 1 mM
[9] = other: Eadie-Hofstee (EH), β-alanine at 20 mM const.
[10] = other: Lineweaver-Burk (LB), β-alanine at 20 mM const.
[11] = other: fit of rate equation for uncompetitive substrate inhibition

Molecule: CC1(C)COC(=O)[C@@H]1O [Pantoyl-lactone, pantoyl-lactone]
activity as substrate in the place of pantoate [1]: not active as substrates
activity (units) [1, 6]: 11.53 units
yield (%) [1, 6]: 92%
activity (units) [1, 7]: <0.1 units
yield (%) [1, 7]: <1%
activity (units) [1, 8]: 0.15 units
yield (%) [1, 8]: 1%
inhibition [1]: did not effect significant inhibition
Final activity [%] [2]: 92%
activity toward pantoyl-lactone (purified E. coli PS): no activity

Molecule: CCCCCCCC/C=C\CCCCCCCC(=O)SCCNC(=O)CCNC(=O)[C@H](O)C(C)(C)COP(=O)(O)OP(=O)(O)OC[C@H]1O[C@@H](n2cnc3c(N)ncnc32)[C@H](O)[C@@H]1OP(=O)(O)O [Oleoyl-coA]
activity at 24 µM ([2]; read-out: Final activity [%]): 108%

Molecule: CC(=O)SCCNC(=O)CCNC(=O)[C@H](O)C(C)(C)COP(=O)(O)OP(=O)(O)OC[C@H]1O[C@@H](n2cnc3c(N)ncnc32)[C@H](O)[C@@H]1OP(=O)(O)O [Acetyl-coA]
activity at 100 µM ([2]; read-out: Final activity [%]): 93%

Molecule: CCCCCC/C=C\CCCCCCCC(=O)SCCNC(=O)CCNC(=O)[C@H](O)C(C)(C)COP(=O)(O)OP(=O)(O)OC[C@H]1O[C@@H](n2cnc3c(N)ncnc32)[C@H](O)[C@@H]1OP(=O)(O)O [Palmitoleoyl-coA]
activity at 22 µM ([2]; read-out: Final activity [%]): 114%

Molecule: CCCCCCCCCCCCCCCC(=O)O [Palmitic acid]
activity at 2 µM ([2]; read-out: Final activity [%]): 133%
activity at 15 µM ([2]; read-out: Final activity [%]): 135%
activity at 60 µM ([2]; read-out: Final activity [%]): 115%

Molecule: CCCCCC/C=C\CCCCCCCC(=O)O [Palmitoleic acid]
activity at 20 µM ([2]; read-out: Final activity [%]): 116%
activity at 100 µM ([2]; read-out: Final activity [%]): 100%

Molecule: CC(C)C(=O)C(=O)O [a-KIVA]
Final activity [%] [2]: 89%

optimal pantoate concentration ([3]; calculated from rate equation with fitted KS and K′S): 470 ± 30 µM
K′S ([3]; fit of rate equation for uncompetitive substrate inhibition): 5.33 ± 0.34 mM
kcat ([3]; from Vmax of the uncompetitive substrate inhibition fit): 0.625 ± 0.011 s⁻¹
pantoate concentration at which substrate inhibition becomes significant ([3]; substrate inhibition of Lotus PS): ≥ 400 µM
Molecule: CC(C)(CO)[C@@H](O)C(=O)O [Pantoate, (R)-pantoate]

Molecule: O=P(O)(O)OP(=O)(O)O [Pyrophosphate]
Final activity [%] [2]: 78%

Molecule: CC(C)(COP(=O)(O)OP(=O)(O)OC[C@H]1O[C@@H](n2cnc3c(N)ncnc32)[C@H](O)[C@@H]1OP(=O)(O)O)[C@@H](O)C(=O)NCCC(=O)NCCS [CoenzymeA]
activity at 100 µM ([2]; read-out: Final activity [%]): 100%
activity at 200 µM ([2]; read-out: Final activity [%]): 106%
activity at 1000 µM ([2]; read-out: Final activity [%]): 109%

Molecule: CC(C)(CO)C(=O)C(=O)O [Ketopantoate, ketopantoate]
activity as substrate in the place of pantoate [1]: not active as substrates
activity (units) [1, 6]: 12.18 units
yield (%) [1, 6]: 97%
activity (units) [1, 7]: 0 units
yield (%) [1, 7]: 0%
activity (units) [1, 8]: 0 units
yield (%) [1, 8]: 0%
inhibition [1]: did not effect significant inhibition
Final activity [%] [2]: 97%

Molecule: CC(C)(COP(=O)(O)OP(=O)(O)OC[C@H]1O[C@@H](n2cnc3c(N)ncnc32)[C@H](O)[C@@H]1OP(=O)(O)O)[C@@H](O)C(=O)NCCC(=O)NCCSC(=O)CC(=O)O [Malonyl-coA]
activity at 100 µM ([2]; read-out: Final activity [%]): 92%

Molecule: CC(C)(CO)[C@@H](O)C(=O)NCCC(=O)O [Pantothenate]
activity at 1000 µM ([2]; read-out: Final activity [%]): 98%

B1: recombinant Lotus pantothenate synthetase (Lotus japonicus) (protein)
chain: PMVISDKDEMRKWSRSMRSQGKLIALVPTMGFLHEGHLSLVRDAHNHADLVAVSIYVNPGQFSPTEDLSAYPSDFQGDLQKLMSVPGGVDVVFHPHNLYDYGGDGGDAVAECGGDGVVSCVDRRSGFGHETWVRAEKLEKPLCGKSRPVFFRGVATIVTKLFNIVEPDVAVFGKKDYQQWKIIQRMVRDLDFSIKVIGSEVIREKDGLAMSSRNVYLSPEEREKAVSINKSLFRAKSAAEDGQIHCEKLINLVVQSITEAGGRIDYAEIVDQNNLEKVEWIKGPVVFCVSAWFGKARLIDNIEINL
Km ([4]; other: Eadie-Hofstee (EH)): 986 (EH) μM
Vmax ([4]; other: Eadie-Hofstee (EH)): 9.51 (EH)
Km ([4]; other: Lineweaver-Burk (LB)): 990 (LB) μM
Vmax ([4]; other: Lineweaver-Burk (LB)): 9.52 (LB)
kcat ([4]; other: Lineweaver-Burk (LB)): 0.54 s⁻¹
Km [5, 9]: 44 (EH) μM
Vmax [5, 9]: 10.98 (EH)
Km [5, 10]: 45 (LB) μM
Vmax [5, 10]: 11.36 (LB)
kcat [5, 10]: 0.63 s⁻¹
Km [5, 11]: 42 ± 2 µM
Vmax [5, 11]: 11.03±0.19 units
